Data published in patent US11324750B2, “Compositions and methods for the treatment of severe acute respiratory syndrome coronavirus 2 (SARS-CoV-2) infection” (Children's Hospital Medical Center, priority 2020, dated 2022).

Key:
SARS-CoV-2 = SARS-CoV-2 copies number in blood by one-step RT-ddPCR; format: in vivo
severe COVID-19 patients = experiment: Randomized controlled trial, clinical outcomes (seven-category ordinal scale, chest CT, mortality, lymphocyte recovery, supportive treatments); format: in vivo, human; details: for CT scan follow-up within 14 days: Improvement, %: P 0.07 vs control
Text: As of the effective date of this application, no therapeutics have yet been proven effective for the treatment of severe COVID-19 with cytokine storm. Ruxolitinib, a potent and selective oral inhibitor of Janus kinase (JAK) 1 and JAK2, was proposed by Applicant to be beneficial in the treatment of cytokine storm. Applicant conducted a prospective, multicenter, single-blind, randomized controlled trial involving participants diagnosed as severe COVID-19 patients. The enrolled patients were randomly separated into two groups with a 1:1 allocation by an independent statistician in blocks of 4 for all 3 sites. Study number and treatment allocation codes were provided in sequentially numbered opaque envelops. Intervention group is treated with ongoing oral intake 5 mg of ruxolitinib (Jakafi®, Novartis Pharma Stein AG, Switzerland) twice a day based on the standard-of-care (SoC); the control group is treated with placebo plus SoC. The primary endpoint was the incidence of serious adverse events occurring up to 28 days and the time to clinical improvement. The secondary endpoint is the overall mortality at D28. This trial is registered at www.chictr.org.cn as ChiCTR-OPN-2000029580.
A prospective, single-blind, randomized controlled trial was designed. Participants diagnosed as positive for COVID-19 were enrolled for screening in three hospitals including Tongji hospital and No. 1 hospital in Wuhan and the Third Xiangya hospital in Changsha, China. The original protocol included secondary randomization in a treatment group for infusion of mesenchymal stem cells if the patient's clinical response had deteriorated within seven days after first randomization. Because no deterioration had occurred in patients of the treatment group within seven days after first randomization and secondary randomization was unnecessary, the protocol was updated correspondingly. This study was approved by the Medical ethics committee of Tongji Hospital, Tongji Medical College, Huazhong University of Science and Technology, Wuhan, China, registered at www.chictr.org.cn as ChiCTR-OPN-2000029580.
Participants. All participants were required to meet the following inclusion criteria: (1) enrolled patients met the diagnostic criterial for COVID-19. The diagnosis and the illness severity of COVID-19 were defined according to the Chinese management guideline for COVID-19 (version 5.0)^28; (2) patients were eligible if they were 18 years or older and younger than 75 years. (3) only severe cases were enrolled. Exclusion criterial included: (1) patients with other malignant tumors in the course of treatment; (2) patients with severe cardiovascular and metabolic disease in unstable status, even if treated with drugs; (3) patients with mental or severe psychiatric disorder who are unable to understand or abide the study protocols; (4) patients needing orotracheal intubation or invasive ventilation; (5) patients who cannot guarantee to complete the scheduled treatment plan and follow-up; (6) women of child-bearing age having positive pregnancy test or still lactating; (7) patients having other active infections; (8) patients having any conditions deemed to potentially affect the safety of the study protocols. Written informed consent was obtained from all patients or the patients' legal representative if the patient was too unwell to provide the consent.
Randomization and masking. The enrolled patients were then randomly allocated into two groups with a 1:1 allocation ratio by an independent statistician using permuted blocks of 4 for all 3 sites. Patient unique identification number and treatment allocation codes were provided in sequentially numbered opaque envelops. Treating physicians were aware of group allocations while the enrolled participants, staff at trial sites, CT radiologists and laboratory personnel were masked to the trial group assignment.
Procedures. The first day of randomization was designated as D0. […]

Compound: N#CC[C@H](C1CCCC1)n1cc(-c2ncnc3[nH]ccc23)cn1 [Ruxolitinib, (3R)-3-cyclopentyl-3-[4-(7H-pyrrolo[2,3-d]pyrimidin-4-yl)pyrazol-1-yl]propanenitrile]
- Blood viral RNA loads at D1 (SARS-CoV-2; mean (±SEM), baseline, P=0.57 vs control): 94±26 copies per milliliter
- Viral load at discharge (SARS-CoV-2; vs SoC alone, P=0.63): did not differ
- CT scan follow-up within 14 days: Progression, % (severe COVID-19 patients; chest CT, N = 20): (5.0%)
- CT scan follow-up within 14 days: Stable, % (severe COVID-19 patients; chest CT, N = 20): (5.0%)
- CT scan follow-up within 14 days: Improvement, % (severe COVID-19 patients; chest CT, N = 20): (90.0%)
- CT scan follow-up within 14 days: Improvement, % (severe COVID-19 patients; chest CT, N = 20, listed as ruxolitinib): 90%
- Time from randomization to death (severe COVID-19 patients; median (IQR)): 0 days
- Time from randomization to discharge (severe COVID-19 patients; median (IQR), P 0.94 vs control): 17 days
- Time to lymphocyte recovery (severe COVID-19 patients; median (IQR), patients with lymphopenia, log-rank P 0.03 vs control): 5 days
- Time to clinical improvement (severe COVID-19 patients; median (IQR), primary efficacy endpoint, log-rank P 0.15 vs control): 12 days
- Clinical improvement Day 28, % (severe COVID-19 patients; seven-category ordinal scale, N = 20, P 0.23 vs control): (100.0%)
- Clinical improvement Day 14, % (severe COVID-19 patients; seven-category ordinal scale, N = 20, P 0.35 vs control): (60.0%)
- Clinical improvement Day 7, % (severe COVID-19 patients; seven-category ordinal scale, N = 20, P 0.41 vs control): (20.0%)
- Clinical improvement Day 21, % (severe COVID-19 patients; seven-category ordinal scale, N = 20, P 1.00 vs control): (90.0%)
